Data as given in patent US12115218B2 (priority 2018, dated 2024).
Counter-ions that a name gives are not always drawn.

System: Inactivated porcine circovirus type 2 vaccine (SH strain) antigen
Design: species or system mice
Settings: mouse, in vivo

Row | Molecule | Antibody titers in mice
1 | c1ccc([C@H]2CN3CCSC3=N2)cc1 [levamisole aqueous solution, levamisole hydrochloride] | no adjuvant synergistic effect was produced
2 | polyinosinic acid-polycytidylic acid | no adjuvant synergistic effect was produced
